Results as given in patent US20090130707A1, “Methods of reducing the inhibitory effect of a redox active metal ion on the enzymatic hydrolysis of cellulosic material” (priority 2007, published 2009).
Entries after “also recorded” stand apart in the source; their conditions may differ.

Assays:
[1] = target: Trichoderma reesei Cel6A cellobiohydrolase II (Trichoderma reesei, UniProt P07987); conditions: 10 mM FeSO4; 2 g PASC and 40 mg enzyme per liter (FIG. 20B)
Experimental: The inhibitory effect of ferrous ion was determined on Trichoderma reesei Cel7A cellobiohydrolase I, Trichoderma reesei Cel6A cellobiohydrolase II, Trichoderma reesei Cel7B endoglucanase I, and Trichoderma reesei Cel5A endoglucanase II using PASC as substrate.
A series of duplicate “mini-scale” hydrolysis reactions were performed according to the procedure described in Example 30, except that 10 mM FeSO4 and 2 g of PASC (dry weight) and 40 mg of enzyme per liter of 50 mM sodium acetate pH 5 were used.

[2] = target: T1, Trichoderma reesei Cel7A cellobiohydrolase I (Trichoderma reesei, UniProt P62694); assay: PASC hydrolysis by Cel7A cellobiohydrolase I; type: biochemical; conditions: 10 mM FeSO4; 2 g PASC and 40 mg enzyme per liter (FIG. 20A)
T1 construct: made in house

[3] = target: T2, Trichoderma reesei Cel7B endoglucanase I (Trichoderma reesei, UniProt P07981); assay: PASC hydrolysis by Cel7B endoglucanase I; type: biochemical; conditions: 10 mM FeSO4; 2 g PASC and 40 mg enzyme per liter (FIG. 20C)
T2 construct: made in house; host or cells: Aspergillus oryzae JaL250

[4] = test system: Cellulolytic Enzyme Composition #2; assay: mini-scale PCS hydrolysis by Cellulolytic Enzyme Composition #2; type: biochemical, Trichoderma reesei
Experimental: Corn stover was pretreated at the U.S. Department of Energy National Renewable Energy Laboratory (NREL), […], Colo., USA, using dilute sulfuric acid. The following conditions were used for the pretreatment: 1.4 wt % sulfuric acid at 195° C. for 4.5 minutes. According to limit digestion with excess cellulase enzymes, the water-insoluble solids in the pretreated corn stover (PCS) contained 59.5% cellulose. Prior to use, the PCS was washed with a large volume of deionized water until soluble acid and sugars were removed. The dry weight of the water-washed PCS was 19.16%.
The effect of various salts (FeSO4, FeCl2, NaCl, Na2SO4, MnSO4, MnCl2) was determined in the hydrolysis of PCS by Cellulolytic Enzyme Composition #2. […] Cellulolytic Enzyme Composition #2 was added at 0.25 g per liter. Reactions without the addition of the salt served as controls. The capped tubes were incubated at 50° C. in an INNOVA® 4080 incubator shaker (New Brunswick Scientific Co., Inc., Edison, N.J., USA) at 150 rpm.
Aliquots of the suspensions, sampled over time, were filtered by centrifugation using a 0.45 μm MULTISCREEN® HV membrane (Millipore, Billerica, Mass., USA) at 2000 rpm for 15 minutes using a SORVALL® RT7 centrifuge (Thermo Fisher Scientific, Waltham, Mass., USA). When not used immediately, the filtered sugary aliquots were frozen at −20° C. Sugar concentrations of the samples diluted in 0.005 M H2SO4 were measured after elution from a 4.6×250 mm AMINEX® HPX-87H column (Bio-Rad, Hercules, Calif., USA) by 0.005 M H2SO4 at a flow rate of 0.4 ml/minute at 65° C. with quantitation by integration of glucose and cellobiose using refractive index detection (CHEMSTATION®, AGILENT® 1100 HPLC, Agilent Technologies, Santa Clara, Calif., USA) calibrated with standards of glucose and cellobiose. The resultant equivalents were used to calculate the percentage of cellulose conversion for each reaction.
The degree of cellulose conversion to glucose plus cellobiose (% conversion) was calculated using the following equation:
% Conversion=(glucose+cellobiose×1.053)(mg/ml)×100×162/cellulose(mg/ml)×180)=(glucose+cellobiose×1.053)(mg/ml)×100/(cellulose(mg/ml)×1.111)
In this equation the factor 1.111 reflects the weight gain in converting cellulose to glucose, and the factor 1.053 reflects the weight gain in converting cellobiose to glucose. Cellulose in PCS was determined by a limit digest of PCS to release glucose and cellobiose.

T1 sequence (P62694 18-513): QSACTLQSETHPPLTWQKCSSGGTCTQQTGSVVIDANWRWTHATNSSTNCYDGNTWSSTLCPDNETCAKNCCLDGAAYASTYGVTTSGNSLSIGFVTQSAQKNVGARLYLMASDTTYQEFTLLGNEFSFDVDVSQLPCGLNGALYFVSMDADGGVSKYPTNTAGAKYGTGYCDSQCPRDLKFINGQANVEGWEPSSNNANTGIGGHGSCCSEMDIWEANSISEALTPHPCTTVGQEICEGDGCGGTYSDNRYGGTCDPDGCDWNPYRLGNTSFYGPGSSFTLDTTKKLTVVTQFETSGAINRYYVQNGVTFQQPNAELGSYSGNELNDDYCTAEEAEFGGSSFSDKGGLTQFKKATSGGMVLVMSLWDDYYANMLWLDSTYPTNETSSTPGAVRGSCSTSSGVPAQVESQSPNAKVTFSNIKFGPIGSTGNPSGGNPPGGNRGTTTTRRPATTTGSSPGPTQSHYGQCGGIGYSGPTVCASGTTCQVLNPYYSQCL
Trichoderma reesei Cel6A cellobiohydrolase II, sequence (P07987 25-471): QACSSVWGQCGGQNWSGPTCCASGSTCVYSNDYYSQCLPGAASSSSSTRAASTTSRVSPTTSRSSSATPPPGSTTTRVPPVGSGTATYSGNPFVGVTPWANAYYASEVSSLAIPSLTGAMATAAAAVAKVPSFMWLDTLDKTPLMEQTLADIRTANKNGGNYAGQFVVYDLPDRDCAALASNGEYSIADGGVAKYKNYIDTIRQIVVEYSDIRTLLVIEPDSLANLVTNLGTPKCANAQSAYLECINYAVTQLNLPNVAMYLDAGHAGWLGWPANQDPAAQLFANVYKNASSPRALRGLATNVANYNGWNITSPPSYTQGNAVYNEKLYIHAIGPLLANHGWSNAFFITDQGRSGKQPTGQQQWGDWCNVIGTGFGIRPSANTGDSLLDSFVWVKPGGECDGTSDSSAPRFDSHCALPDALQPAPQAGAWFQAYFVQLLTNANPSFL
T2 sequence (P07981 23-459): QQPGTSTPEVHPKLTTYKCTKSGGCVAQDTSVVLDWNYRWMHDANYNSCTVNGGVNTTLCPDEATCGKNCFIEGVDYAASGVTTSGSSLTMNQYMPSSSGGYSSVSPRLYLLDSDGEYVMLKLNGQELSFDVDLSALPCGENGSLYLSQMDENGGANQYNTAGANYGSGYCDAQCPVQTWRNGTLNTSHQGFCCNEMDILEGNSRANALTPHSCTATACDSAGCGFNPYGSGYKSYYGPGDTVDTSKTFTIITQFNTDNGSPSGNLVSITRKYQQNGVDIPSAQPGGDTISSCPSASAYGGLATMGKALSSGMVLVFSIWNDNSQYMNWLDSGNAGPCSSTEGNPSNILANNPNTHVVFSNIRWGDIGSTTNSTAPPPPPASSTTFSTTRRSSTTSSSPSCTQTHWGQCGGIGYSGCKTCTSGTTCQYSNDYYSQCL

Substance: Ferrous sulfate [FeSO4]
- Effect on enzyme [1]: significantly inhibited
- Effect on enzyme [2]: significantly inhibited
- Effect on enzyme [3]: significantly inhibited
- Effect on PCS hydrolysis ([4]; 10 mM salt, 43.4 g PCS and 0.25 g enzyme per liter, 50 mM sodium acetate pH 5, 50° C.): significant inhibition; also recorded: significantly inhibited
- Effect on the cellulases ([4]; 0.1 and 1 mM): did not significantly affect
